Converted amounts (≈) assume the structure as drawn. “And” between values parts separate entries of the source, which are not always exact repeats. Equal entries are not always repeated. Where two headings read alike, the source gives them in different places. Marks after values point to notes of the source that are not given here.
How the values were obtained:
[1] = target: endogenous BCL6 in OCI-Ly1 cells (Homo sapiens, UniProt P41182); experiment: cell-based; details: for degradation of BCL6 (in words): OCI-Ly1 MSD assay; for MSD degrader assay [OCI-Ly1] Dmax: mean maximal degradation of BCL6
[2] = Microsomal clearance assay (MLM); format: in vitro ADME; details: mouse liver microsomes, 1 μM compound; for microsomal CLint at 0.5 h, 1 µM: female, CD1, pH 7.4
Protocol: (§1) 6. Supplementary experimental: in vitro DMPK assays
(§2) 6.1 Microsomal clearance assay
(§3) Microsomal clearance was determined in female CD1 mice, female Sprague–Dawley rats, and mixed gender human liver microsomes obtained from BioIVT (Peterborough, U.K.) following incubation of 1 μM compound at 37 °C in 0.5 mg/mL microsomal protein, 3 mmol/L MgCl2, 1 mmol/L NADPH, 2.5 mmol/L and 10 mmol/L phosphate buffer (pH 7.4) (all purchased from Sigma-Aldrich, Gillingham, U.K). Reactions were started by addition of the cofactors following 10 min preincubation of microsomes with test compound and were terminated at −1, 0, 5, 10, 15, and 30 min with three volumes of ice-cold methanol containing internal standard. Samples were centrifuged at 2800g for 30 min at 4 °C and the supernatants analyzed.
(§4) Control incubations were prepared as above with omission of cofactors. Compound measurements were […]
(§5) separation with a 3 min gradient of 0.1% formic acid in methanol on a Kinetex C18, 50 × 2.1 mm 2.6 μm UPLC column (Phenomenex, Macclesfield, UK). […]

[3] = Microsomal clearance assay (HLM); format: in vitro ADME; details: human liver microsomes, 1 μM compound
Protocol: as §1, §2, §3, §4, §5

[4] = Microsomal clearance assay (RLM); format: in vitro ADME; details: rat liver microsomes, 1 μM compound
Protocol: as §1, §2, §3, §4, §5

[5] = logD7.4 assay (Chrom log D method); format: physicochemical; details: pH 7.4, read-out: Measured logD7.4
Protocol: Calibration, validation and in-house compounds were prepared at 1mM in 10% DMSO / 90% Trizma solution (100mM Trizma in 75/25 methanol/water). 3 µL standard injections (with needle wash) of all calibration, validation and in-house samples were made onto a Phenomenex Luna C8 column (3µm, 100 x 4.6 mm, 100A, Phenomenex, Torrence, USA). Chromatographic separation at 30°C was carried out using […]
2 mL/min. The gradient was held at 0:100 water:organic for 0.8 minutes, then returned to the starting conditions of 95:5 water:organic for 0.2 minutes. The column was re-equilibrated for 5 minutes at the […]

NMR solubility assay = format: physicochemical; details: kinetic solubility by NMR in HEPES buffer at pH 8, 4% DMSO; read-out: Aq. Sol.
Protocol: 4. Supplementary experimental: physicochemical assays
0.5 mM TCEP, 10% D2O) was pipetted into the same well and mixed by up-down pipetting 3 times to create […]
It was then separated by centrifugation (1000 rpm
The plate was then sealed and incubated at room temperature for 20 hours, […]
165 µL of the supernatant was transferred to a 3 mm NMR tube (Bruker, Part No. Z112272) using liquid handler SamplePro Tube SJ S (Bruker). The concentration of the solubilized compound in solubility sample is measured by quantitative 1H-NMR using a single external standard (200 µM caffeine (Sigma, C1778) in PBS (pH 7.4) with 1% DMSO-d6).
The detail of the NMR method is as following: NMR data was collected on a Bruker Avance Neo 600 spectrometer equipped with a 5 mm TCI-CryoProbe. The 1H spectrum was referenced to the internal deuterated solvent. The operating frequency for 1H was 600 MHz. All NMR data were acquired at the […]
1H-NMR spectrum was acquired using a Bruker standard 1D lc1pngppsf2 pulse sequence with 32 scans.
The sweep width was 6.2 ppm with O1P set to 8.8 ppm, and the FID contained 16k time-domain data points. Relaxation delay was set to 20 sec. Water signal was suppressed. […]

in vitro [6] = format: in vitro ADME; details: pH 7.4, 10 µM, 16 h at 30 °C
in vitro [7] = format: in vitro ADME; details: fraction unbound in OCI-Ly1 DC50 assay medium
in vitro [8] = format: in vitro ADME; details: BALB/c; mouse plasma, rapid equilibrium dialysis; read-out: mouse (BALB\c) PPB (converted)
[9] = In vivo pharmacokinetic study in Balb/C mice; design: species or system mouse; details: female Balb/C mice
HPLC solubility assay = format: physicochemical; details: solubility by HPLC in PBS buffer and 1% DMSO at pH 7.4
Protocol: 11 4.2 HPLC solubility assay
10 µL of 10 mM DMSO stock solution was pipetted into a micro centrifuge tube (1.5 mL, Sarstedt part-no.
seconds on vortex mixer (Grant-bio vortex mixer) to create 100 µM solution with 1% DMSO. Following shaking of the suspension on a Bohdan Shaker at 500 rpm for 2 hours at room temperature (20 °C), it was
The concentration of the solubilized compound in solubility sample is measured by HPLC with UV detection using an external standard which was prepared by pipetting 10 µL of the same batch of
The detail of the HPLC method is as following: chromatographic separation at 30°C is carried out over a 5 minute gradient elution method from 90:10 to 10:90 water:methanol (both modified with 0.1% formic acid) at a flow rate of 1.5 mL/min. Calibration curve is prepared by injecting 0.5, 2.5, and 5 µL of compound

human BCL6 BTB domain [10] = target: T1, human BCL6 BTB domain (Homo sapiens, UniProt P41182); details: for BCL6 TR-FRET pIC50 mean: mean of replicates
human BCL6 BTB domain [11] = target: T1, human BCL6 BTB domain; experiment: biochemical; details: BCL6 TR-FRET IC50 individual replicates, single replicate values
BCL6 in Karpas 422 cells = BCL6 in Karpas 422 cells (Homo sapiens, UniProt P41182); experiment: cell-based; details: read-out: MSD degrader assay [Karpas 422] DC50; Karpas 422 cells
Protocol: 3.2 Mesoscale Discovery (MSD) Degradation Assay
An MSD assay was developed for screening of compounds to determine the degradation of endogenous BCL6 in OCI-Ly1 cells. Briefly, test compounds in DMSO or DMSO alone to a total of 1332.5 nL/well were dispensed to a 96-well Nunc™ Edge 2 plate (ThermoFisher Scientific, 267544) using an Echo® 550 acoustic […]
supplemented with 10% heat-inactivated fetal bovine serum (Sera Plus, PAN Biotech, P30-3702) were […]
incubation at 37 °C + 5% CO2 the plate was centrifuged at 300 x g for 5 minutes. […]
plate washer for all wash and aspiration steps, media was removed and cells were rinsed with PBS, centrifuged as before and PBS removed. Cells were lysed in 50 µL ice-cold lysis buffer at pH 7.4 containing 50 mM Tris-HCl, 150 mM NaCl, 1 % Triton X-100 (v/v), 1 mM PMSF, 1 mM activated sodium vanadate, 1 mM EDTA, phosphatase inhibitors 2 and 3 (1:50 dilution) and protease inhibitor cocktail (1:100 dilution).
20 °C or continuing the assay. A 96-well MSD standard bind plate (MSD, L15XA-3) which was coated overnight with 1 µg/mL anti-human BCL6 goat antibody in PBS (R&D Systems, AF5046) was blocked in 3% BSA in TBS + 0.1% Tween-20 for 1 hour with shaking. Wells were emptied thoroughly before 40 µL/well of lysate was transferred from the cell plate. The MSD plate was incubated at RT for 1 hour with shaking then washed three times with TBS + 0.1 % Tween-20. Antibodies were prepared in TBS + 0.1% Tween-20 + 1% BSA. Anti-human BCL6 rabbit antibody (Cell Signalling Technology, 14895S) was added at 1:100 dilution at 25 µL/well. The plate was incubated and washed as before. MSD Sulfo-tag anti-rabbit detection antibody (MSD, R32AB-1) at 1:1000 dilution at 25 µL/well was added. The plate was incubated and washed as before and MSD Gold read buffer (MSD R92TG) at 1:1 dilution with water at 150 µL/well was added. The plate was read within 10 minutes on the MSD Quickplex reader. The % inhibition at each […]
3.3 Cell proliferation assay
Aldrich) supplemented with 10% FBS (Gibco). […]
transferred onto the cells.
Assay plates containing cells […]

HT = experiment: Cell proliferation assay (14 days), HT; details: Homo sapiens, HT, 336 h, read-out: HT GI50
Protocol: (§6) Cells were seeded in 96-well culture plates at a density of 2500 cells/well in RPMI-1640 medium (Sigma-
(§7) Aldrich) supplemented with 10% FBS (Gibco). Compounds were initially dispensed into 96-well U-bottom
(§8) plates using an Echo 550 acoustic dispenser (Labcyte Inc.), then diluted in RPMI-1640 medium and
(§9) transferred onto the cells. Cells were treated with 8 compound concentrations in duplicate, ranging from
(§10) with compound for 14 days, with medium changes at days 3, 7 and 10 carried out as follows: fresh 96-well
(§11) cell culture plates were prepared containing 100 µl medium plus compound at the assay concentrations
(§12) (white plates were used on day 10 to optimise luminescence measurement). Assay plates containing cells
(§13) were vortexed to mix and cell density in one control well was counted using a Coulter Z2 cell counter
(§14) (Beckman Coulter). The volume of medium containing 2500 cells in the control well was calculated and this volume of cells was transferred from every well of the assay plates to the corresponding well of the fresh plates containing compound. After 14 days, CellTiter Glo reagent (Promega) was added to the medium in each well of the assay plate at a ratio of 1:2, mixed on a plate shaker, then incubated at room temperature for 10 minutes. Luminescence was measured using an Envision plate reader (Perkin Elmer) and the relative luminescence at each compound concentration, compared to DMSO alone, was calculated. GI50 were determined using a 4-parameter curve fit in Dotmatics (Bishops Stortford, UK).

OCI-Ly1 = experiment: Cell proliferation assay (14 days), OCI-Ly1; details: Homo sapiens, OCI-Ly1, 336 h, read-out: OCI-Ly1 GI50
Protocol: as §6, §7, §8, §9, §10, §11, §12, §13, §14

OCI-Ly3 = experiment: Cell proliferation assay (14 days), OCI-Ly3; details: Homo sapiens, OCI-Ly3, 336 h, read-out: OCI-Ly3 GI50
Protocol: as §6, §7, §8, §9, §10, §11, §12, §13, §14

SU-DHL-4 = experiment: Cell proliferation assay (14 days), SU-DHL-4; details: Homo sapiens, SU-DHL-4, 336 h, read-out: SU-DHL-4 GI50
Protocol: as §6, §7, §8, §9, §10, §11, §12, §13, §14

Karpas 422 = experiment: Cell proliferation assay (14 days), Karpas 422; details: Homo sapiens, KARPAS-422, 336 h, read-out: Karpas 422 GI50
Protocol: as §6, §7, §8, §9, §10, §11, §12, §13, §14

[12] = OCI-Ly1, read-out: MSD degrader assay [OCI-Ly1] Dmax, mean maximal degradation of BCL6, OCI-Ly1 cells, 2 h
[13] = reversed-phase HPLC on Phenomenex Luna C8 column
[14] = OCI-Ly1, read-out: MSD degrader assay [OCI-LY1] Dmax individual replicates, single replicate values
[15] = read-out: MSD degrader assay [OCI-LY1] DC50 individual replicates, single replicate values
[16] = read-out: MSD degrader assay [OCI-Ly1] DC50, geometric mean, OCI-Ly1 cells, 2 h incubation
[17] = read-out: BCL6 TR-FRET IC50, geometric mean, BCOR-AF633 peptide, 2 h incubation

| SMILES | Dmax [1, 12] | microsomal CLint at 0.5 h, 1 µM ([3]; both sexes, pH 7.4) | microsomal CLint at 0.5 h, 1 µM ([4]; female, Sprague-Dawley, pH 7.4) | chromatographic logD [5, 13] | PAMPA (pH 7.4) (in vitro [6]) | Dmax [1, 14] | degradation of BCL6 (in words) [1] | MSD degrader assay [OCI-Ly1] Dmax ([1]; OCI-Ly1 cells, 2 h) | DC50 [1, 15] | DC50 [1, 16] | microsomal CLint at 0.5 h, 1 µM [2] | BCL6 TR-FRET pIC50 mean (human BCL6 BTB domain [10]) | IC50 (human BCL6 BTB domain [10]; [17]) | IC50 (human BCL6 BTB domain [11]) | other results |
| --- | --- | --- | --- | --- | --- | --- | --- | --- | --- | --- | --- | --- | --- | --- | --- |
| C[C@@H]1CN(c2ncc(Cl)c(Nc3ccc4c(c3)n(CCC(C)(C)O)c(=O)n4C)n2)C[C@H](C)C1(F)F [2 CCT369260, 5-((5-Chloro-2-((3R,5S)-4,4-difluoro-3,5-dimethylpiperidin-1-yl)pyrimidin-4-yl)amino)-3-(3-hydroxy-3-methylbutyl)-1-methyl-1,3-dihydro-2H-benzo[d]imidazol-2-one] | 99.3% | 11 µL/min/mg | 10 µL/min/mg | 4.3 | 33 ×10–6 cm s–1 |  |  |  |  |  |  |  |  |  | CLint (MLM) [2]: 78 μL/min/mg protein; solubility kinetic at 20 h (NMR solubility assay): 11 µM (≈ 5.6 µg/mL); fu,media (in vitro [7]): 0.022; fraction unbound (in vitro [8]): 0.0004; CL as % Qh [9]: 22 % Qh; CL ([9]; 1 mg/kg i.v.): 1.19 L/h/kg; Vd ([9]; mouse, in vivo, 1 mg/kg, read-out: Vss): 2.1 L/kg; half-life at 6 h ([9]; mouse, in vivo, po, 5 mg/kg): 1.4 h; Cmax ([9]; mouse, in vivo, 1 mg/kg i.v. and 5 mg/kg p.o.): 1580 nM; F ([9]; oral bioavailability, 5 mg/kg p.o. vs 1 mg/kg i.v.): 54%; CLu ([9]; unbound clearance): 2803.9 L/h/kg |
| Cn1c(=O)c2c(c3cc(Nc4nc(N5CCC(F)(F)[C@@H](CO)C5)ncc4Cl)ccc31)N[C@@H](C1CC1)C(F)(F)CO2 [9a, (S)-10-((5-Chloro-2-((R)-4,4-difluoro-3-(hydroxymethyl)piperidin-1-yl)pyrimidin-4-yl)amino)-2-cyclopropyl-3,3-difluoro-7-methyl-1,2,3,4-tetrahydro-[1,4]oxazepino[2,3-c]quinolin-6(7H)-one] | 82.8% | 14 µL/min/mg | 9 µL/min/mg | 3.2 | 21 ×10–6 cm s–1 | 76.7% | fully degraded the protein | 83% | 2.5 nM and 3 nM | 2.7 nM | 142 µL/min/mg | 8.8118 | 1.5 nM | 1.3 nM and 2.2 nM (2×) and 0.9 nM and 4 nM | MSD degrader assay [OCI-LY1] pDC50 mean ([1]; mean of replicates): 8.5622; DC50 ([1]; read-out: Calculated free DC50 [OCI-Ly1], DC50 corrected with fu,media): 0.24 nM; MSD degrader assay [OCI-LY1] Dmax individual replicates ([1]; single replicate values): 89.0%; Aq. Sol. (HPLC solubility assay): 13^f μM and 13 ^e μM; fraction unbound (in vitro [7]; bovine, read-out: fu,media): 0.088 |
| C[C@@H]1C[C@H](O)CN(c2ncc(Cl)c(Nc3ccc4c(c3)c3c(c(=O)n4C)OCC(F)(F)[C@H](C4CC4)N3)n2)C1 [12b CCT373567, (S)-10-((5-Chloro-2-((3S,5R)-3-hydroxy-5-methylpiperidin-1-yl)pyrimidin-4-yl)amino)-2-cyclopropyl-3,3-difluoro-7-methyl-1,2,3,4-tetrahydro-[1,4]oxazepino[2,3-c]quinolin-6(7H)-one] | < 30% |  |  |  | 16 ×10–6 cm s–1 | < 30% | no degradation was seen | > 30% | > 2000 nM | > 2000 nM | 90 µL/min/mg | 8.5554 | 2.8 nM | 3.9 nM and 2.4 nM (2×) and 2.6 nM | degradation of BCL6 (in words) ([1]; listed as 12b): nondegrading isomer; DC50 (BCL6 in Karpas 422 cells): > 2000 nM; microsomal CLint at 1 μM ([3]; both sexes, pH 7.4): 3 µL/min/mg; CLint (HLM) [3]: low clearance; microsomal CLint at 1 μM ([4]; female, Sprague-Dawley, pH 7.4): 3 µL/min/mg; CLint (RLM) [4]: low clearance; chromatographic logD [5]: 2.9; IC50 (human BCL6 BTB domain [10]; read-out: BCL6 TR-FRET IC50 individual replicates, single replicate values): 2.8 nM; GI50 (HT): 362 nM; GI50 (OCI-Ly1): 83 nM; GI50 (OCI-Ly3): 2140 nM; GI50 (SU-DHL-4): 820 nM; GI50 (Karpas 422): 38 nM |
